Experimental data taken from patent US8367659B2, “Oxazinyl isoflavonoid compounds, medicaments and use” (Marshall Edwards, Inc., priority 2007, dated 2013).
“Also recorded” adds a separate entry of the source. Read-outs that look alike come from different tables or passages of the source.

How the values were obtained:
THP-1 cells = test: Cell viability of THP-1 cells in the NFκB assay; type: cell-based, human; conditions: 50 μM and 100 μM
Method: In brief, genetically modified THP-1 cells were seeded into wells of a 96-well plate (50×10^3 cells/well) in the presence of RPMI 1640 medium (70 μl). TNFα was added to each well (10 μl) to give a final concentration of 7.5 ng/ml. Dialyzed bovine serum was added (10 μl). Compounds dissolved in DMSO (10 μL) were then added (5 wells for each compound). Each plate contained a no-cell control (4 wells), a no-serum control (4 wells) and two serum controls. Plates were incubated for 5 h at 37° C. to allow for NFκB-stimulated beta-lactamase production. LiveBLAzer™ FRET B/G Substrate (CCF4-AM) substrate was then added to assay. CCF4-AM is a Forster resonance energy transfer (FRET) based substrate for beta-lactamase developed by Invitrogen Corp. Once CCFA-AM enters a cell, it is converted to negatively charged CCF4 by endogenous esterases. Excitation of this substrate at 409 nm leads to efficient FRET between the coumarin and fluorescein moieties, resulting in a green fluorescence detectable at 530 nm. The presence of beta-lactamase leads to cleavage of CCF4 and results in a loss of FRET, resulting in a robust blue fluorescent signal detectable at 460 nm. Thus, activity of beta-lactamase (a marker of NFκB-promoter activity) is measured as a product to substrate ratio (blue/green fluorescence ratio: 460 nm/530 nm). […]

ICAM-1 = test: TNFα-induced ICAM-1 expression in human arterial endothelial cells (ELISA); type: cell-based
Method: (§1) Inhibition of TNFα-stimulated endothelial cell activation by compounds was assessed by measuring surface expression of cell adhesion molecules with an ELISA method. Human arterial endothelial cells (HAEC) in growth medium (Cell Applications Inc.) were seeded into 96-well plates at a density of 10,000 cells per well. Plates were incubated overnight at 37° C. in a humidified incubator to allow for cells to become confluent. On the morning of the experiment, TNFα (10 μl, 2 ng/ml) was added to each well, which contained 100 μl of medium. Compounds were diluted in DMSO-containing medium (2.5% DMSO) to give a compound concentration of 100 and 300 μM. Compounds were added to wells so that final concentrations were 10 and 30 μM. DMSO-containing medium alone was added to zero concentration control wells. All samples were measured in quadruplicate (4 wells per treatment).
(§2) After incubation with compound, medium was removed and cells were probed with either non-specific IgG or specific mouse antibodies against E-selectin, ICAM or VCAM (BD Biosciences—0.1 μg in 100 μL buffered saline with 10% heat-inactivated human serum). Adhesion molecule expression was detected by addition of sheep anti-mouse antibody/horseradish peroxidase conjugate. […] Optical density was measured at 405 nm with an ELISA reader (Titertek Multiscan, Flow Laboratories). […]

E-selectin = test: TNFα-induced E-selectin expression in human arterial endothelial cells (ELISA); type: cell-based
Method: as §1, §2

[1] = Free radical scavenging with DPPH; conditions: for EC50: DPPH, read-out: Free radical scavenging ability EC50
Method in brief: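 Compounds reacted with DPPH in ethanol for 20 min, screened at 100 μM, and absorbance at 517 nm compared with a DPPH-ethanol blank. IC50 was taken as the concentration giving a 0.6 absorbance change, with 1.2 units representing total scavenging.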

[2] = TNFα-stimulated HAEC, 4 hrs, FIG. 18
[3] = HAEC, 10 μM found most appropriate for comparing

| EC50 ([1]; 20 minutes, absorbance 517 nm, Table 4) [µM] | EC50 ([1]; comparative, Table 13) [µM] | Compound | cell viability (THP-1 cells) | inhibition of ICAM expression (ICAM-1; [2]) | inhibition of E-selectin expression (E-selectin; [2]) [%] | free radical scavenging / antioxidant activity in DPPH screen ([1]; 100 μM, ΔAbs>0.3 criterion) | effect on TNFα-induced ICAM-1 expression (ICAM-1; [3]) | effect on TNFα-induced E-selectin expression (E-selectin; [3]) |
| --- | --- | --- | --- | --- | --- | --- | --- | --- |
|  |  | Oc1ccc(C2=Cc3cc4c(cc3OC2)OCN(Cc2ccccc2)C4)cc1 [Compound 1, 4-(3-Benzyl-2,3,4,8-tetrahydrochromeno[6,7-e][1,3]oxazin-7-yl)phenol] | reduced cell viability | 10-50% | > 50 |  |  |  |
| 21.4 |  | CC(c1ccccc1)N1COc2cc3c(cc2C1)C=C(c1ccc(O)cc1)CO3 (stereo not drawn) [Compound 2, 4-(3-(1-Phenylethyl)-2,3,4,8-tetrahydrochromeno[6,7-e][1,3]oxazin-7-yl)phenol] | reduced cell viability |  |  |  |  |  |
|  | 55 | Oc1cccc(C2=Cc3ccc(O)cc3OC2)c1 [Compound 37-DHE, 3′,7-dihydroxy-isoflav-3-ene, reference compound] |  |  |  | free radical scavenging activity; also recorded: potent free radical scavenging ability | less pronounced | less pronounced |
